Experimental data as given in article PMC7407272, “Induction of Lysosome Membrane Permeabilization as a Therapeutic Strategy to Target Pancreatic Cancer Stem Cells” (Cancers, 2020).

Legend:
[1] = molecular target: T1, RSK3(KD1-N-t.) (Homo sapiens, UniProt Q15349); assay: KINOMEscan; assay type: binding; conditions: read-out: % Ctrl
T1 construct: RSK3(KD1-N-t.); purchased DiscoveRx KINOMEscan

[2] = molecular target: T2, JAK2(JH1D.-cat.) (Homo sapiens, UniProt O60674); assay: KINOMEscan; assay type: binding; conditions: read-out: % Ctrl
T2 construct: JAK2(JH1D.-cat.); purchased DiscoveRx KINOMEscan

[3] = molecular target: T3, MINK (Homo sapiens, UniProt Q8N4C8); assay: KINOMEscan; assay type: binding; conditions: read-out: % Ctrl
T3 construct: purchased DiscoveRx KINOMEscan
T3 sequence (Q8N4C8 whole entry): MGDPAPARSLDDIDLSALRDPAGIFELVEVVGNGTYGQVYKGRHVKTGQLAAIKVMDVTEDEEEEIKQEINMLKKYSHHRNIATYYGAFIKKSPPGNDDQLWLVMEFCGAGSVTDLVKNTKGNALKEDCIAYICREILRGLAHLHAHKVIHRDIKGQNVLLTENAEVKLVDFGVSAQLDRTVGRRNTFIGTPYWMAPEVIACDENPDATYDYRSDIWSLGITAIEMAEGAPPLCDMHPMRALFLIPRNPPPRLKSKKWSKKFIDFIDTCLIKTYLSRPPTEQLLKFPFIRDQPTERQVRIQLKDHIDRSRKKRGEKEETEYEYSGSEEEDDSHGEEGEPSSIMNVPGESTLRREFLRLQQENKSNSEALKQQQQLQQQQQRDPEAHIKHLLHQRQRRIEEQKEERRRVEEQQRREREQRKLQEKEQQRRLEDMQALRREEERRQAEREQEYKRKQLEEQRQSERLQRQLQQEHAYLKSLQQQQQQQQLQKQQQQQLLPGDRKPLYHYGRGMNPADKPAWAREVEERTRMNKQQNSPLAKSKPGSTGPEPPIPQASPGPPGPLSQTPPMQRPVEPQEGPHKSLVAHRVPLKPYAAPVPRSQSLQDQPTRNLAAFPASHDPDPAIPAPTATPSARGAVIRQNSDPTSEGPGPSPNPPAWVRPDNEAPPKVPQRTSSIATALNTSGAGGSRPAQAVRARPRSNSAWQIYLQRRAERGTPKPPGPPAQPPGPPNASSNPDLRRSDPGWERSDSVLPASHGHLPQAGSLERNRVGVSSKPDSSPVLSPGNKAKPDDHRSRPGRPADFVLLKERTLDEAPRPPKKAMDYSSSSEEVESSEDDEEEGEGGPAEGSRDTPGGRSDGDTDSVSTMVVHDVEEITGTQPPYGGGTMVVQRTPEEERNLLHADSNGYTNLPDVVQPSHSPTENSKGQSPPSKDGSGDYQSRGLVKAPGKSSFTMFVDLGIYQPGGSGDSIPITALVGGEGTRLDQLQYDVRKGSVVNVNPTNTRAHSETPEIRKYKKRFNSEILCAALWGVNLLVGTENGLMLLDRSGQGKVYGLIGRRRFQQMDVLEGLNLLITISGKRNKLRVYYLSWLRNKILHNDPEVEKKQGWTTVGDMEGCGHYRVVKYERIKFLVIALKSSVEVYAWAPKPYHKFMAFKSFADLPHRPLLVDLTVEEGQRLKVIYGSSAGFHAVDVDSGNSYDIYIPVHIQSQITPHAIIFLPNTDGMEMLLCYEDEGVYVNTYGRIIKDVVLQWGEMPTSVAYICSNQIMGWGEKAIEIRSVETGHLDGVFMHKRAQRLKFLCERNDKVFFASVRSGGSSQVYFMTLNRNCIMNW

[4] = molecular target: T4, WEE2 (Homo sapiens, UniProt P0C1S8); assay: KINOMEscan; assay type: binding; conditions: read-out: % Ctrl
T4 construct: purchased DiscoveRx KINOMEscan
T4 sequence (P0C1S8 whole entry): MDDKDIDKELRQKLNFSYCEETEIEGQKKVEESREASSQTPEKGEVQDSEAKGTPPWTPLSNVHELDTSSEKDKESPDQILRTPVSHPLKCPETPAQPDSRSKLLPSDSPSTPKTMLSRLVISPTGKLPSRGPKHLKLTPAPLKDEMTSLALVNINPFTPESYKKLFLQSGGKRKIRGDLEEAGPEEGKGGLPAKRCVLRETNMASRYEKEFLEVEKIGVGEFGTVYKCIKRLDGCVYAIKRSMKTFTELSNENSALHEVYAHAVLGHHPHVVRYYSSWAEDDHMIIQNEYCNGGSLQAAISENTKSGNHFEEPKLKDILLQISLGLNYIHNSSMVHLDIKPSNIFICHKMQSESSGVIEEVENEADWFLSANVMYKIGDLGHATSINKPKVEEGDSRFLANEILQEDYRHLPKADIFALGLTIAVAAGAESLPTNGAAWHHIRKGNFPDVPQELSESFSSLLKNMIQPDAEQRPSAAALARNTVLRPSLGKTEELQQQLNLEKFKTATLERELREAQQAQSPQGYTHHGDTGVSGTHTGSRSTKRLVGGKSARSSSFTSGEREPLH

[5] = molecular target: T5, TXK (Homo sapiens, UniProt P42681); assay: KINOMEscan; assay type: binding; conditions: read-out: % Ctrl
T5 construct: purchased DiscoveRx KINOMEscan
T5 sequence (P42681 whole entry): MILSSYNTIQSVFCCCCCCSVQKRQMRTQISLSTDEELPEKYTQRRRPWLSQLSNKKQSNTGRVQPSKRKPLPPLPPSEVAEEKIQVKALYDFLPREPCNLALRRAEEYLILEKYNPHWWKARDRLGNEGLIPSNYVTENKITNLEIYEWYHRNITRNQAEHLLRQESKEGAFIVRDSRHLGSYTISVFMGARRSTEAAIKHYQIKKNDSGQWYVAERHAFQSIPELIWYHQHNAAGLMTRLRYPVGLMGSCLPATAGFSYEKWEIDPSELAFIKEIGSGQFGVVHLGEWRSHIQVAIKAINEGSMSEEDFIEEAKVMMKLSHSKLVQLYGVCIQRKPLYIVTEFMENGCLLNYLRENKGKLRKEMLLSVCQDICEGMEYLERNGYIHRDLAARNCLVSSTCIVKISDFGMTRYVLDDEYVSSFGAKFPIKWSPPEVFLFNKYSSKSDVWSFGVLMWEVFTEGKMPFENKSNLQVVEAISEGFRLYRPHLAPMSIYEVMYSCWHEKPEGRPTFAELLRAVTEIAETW

[6] = tested on: FLT3(ITD); assay: KINOMEscan; assay type: binding, human; conditions: 1 µM
[7] = molecular target: T6, PRKCI (Homo sapiens, UniProt P41743); assay: KINOMEscan; assay type: binding; conditions: read-out: % Ctrl
T6 construct: purchased DiscoveRx KINOMEscan

[8] = molecular target: T7, CDK9 (Homo sapiens, UniProt P50750); assay: KINOMEscan; assay type: binding; conditions: read-out: % Ctrl
T7 construct: purchased DiscoveRx KINOMEscan
T7 sequence (P50750 whole entry): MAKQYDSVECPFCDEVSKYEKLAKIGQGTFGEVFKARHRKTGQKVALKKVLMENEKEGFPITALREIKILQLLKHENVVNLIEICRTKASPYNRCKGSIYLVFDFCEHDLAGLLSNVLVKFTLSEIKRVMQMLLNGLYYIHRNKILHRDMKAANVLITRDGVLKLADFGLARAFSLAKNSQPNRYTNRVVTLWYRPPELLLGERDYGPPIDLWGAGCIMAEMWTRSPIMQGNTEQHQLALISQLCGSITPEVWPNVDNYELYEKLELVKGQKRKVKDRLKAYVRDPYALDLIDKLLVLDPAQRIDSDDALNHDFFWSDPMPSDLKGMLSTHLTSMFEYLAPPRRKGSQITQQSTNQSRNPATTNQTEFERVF

[9] = molecular target: T8, RSK1(KD2-C-t.) (Homo sapiens, UniProt Q15418); assay: KINOMEscan; assay type: binding; conditions: read-out: % Ctrl
T8 construct: RSK1(KD2-C-t.); purchased DiscoveRx KINOMEscan
T8 sequence (Q15418 392-735 limits assumed): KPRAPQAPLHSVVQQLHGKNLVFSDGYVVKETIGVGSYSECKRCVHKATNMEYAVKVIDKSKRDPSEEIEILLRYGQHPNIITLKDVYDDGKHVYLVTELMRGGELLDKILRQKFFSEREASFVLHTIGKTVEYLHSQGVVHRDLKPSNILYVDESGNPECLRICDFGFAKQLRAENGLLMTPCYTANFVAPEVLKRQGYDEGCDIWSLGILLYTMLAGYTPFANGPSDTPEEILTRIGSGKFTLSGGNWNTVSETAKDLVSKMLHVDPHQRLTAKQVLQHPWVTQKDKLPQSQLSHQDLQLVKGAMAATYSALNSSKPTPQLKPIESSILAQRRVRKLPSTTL

[10] = molecular target: T9, SGK3 (Homo sapiens, UniProt Q96BR1); assay: KINOMEscan; assay type: binding; conditions: read-out: % Ctrl
T9 construct: purchased DiscoveRx KINOMEscan

[11] = molecular target: T10, EGFR(L747-S752del, P753S) (Homo sapiens, UniProt P00533, DEL747-752/P753S); assay: KINOMEscan; assay type: binding; conditions: read-out: % Ctrl
T10 construct: purchased DiscoveRx KINOMEscan
T10 sequence (P00533 with tags, fused parts or gaps DEL747-752/P753S limits assumed): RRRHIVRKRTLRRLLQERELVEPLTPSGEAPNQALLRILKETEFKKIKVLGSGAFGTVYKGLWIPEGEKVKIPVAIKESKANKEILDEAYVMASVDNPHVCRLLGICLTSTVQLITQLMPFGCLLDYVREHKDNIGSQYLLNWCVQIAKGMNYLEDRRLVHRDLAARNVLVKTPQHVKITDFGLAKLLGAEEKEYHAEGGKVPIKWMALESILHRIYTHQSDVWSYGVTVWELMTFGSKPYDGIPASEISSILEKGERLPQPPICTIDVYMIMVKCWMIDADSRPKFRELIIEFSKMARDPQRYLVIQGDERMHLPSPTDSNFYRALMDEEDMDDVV

[12] = molecular target: T11, ABL1(F317I)-nonP (Homo sapiens, UniProt P00519, F317I); assay: KINOMEscan; assay type: binding; conditions: read-out: % Ctrl
T11 construct: purchased DiscoveRx KINOMEscan

[13] = molecular target: T12, CAMK1G (Homo sapiens, UniProt Q96NX5); assay: KINOMEscan; assay type: binding; conditions: read-out: % Ctrl
T12 construct: purchased DiscoveRx KINOMEscan
T12 sequence (Q96NX5 whole entry): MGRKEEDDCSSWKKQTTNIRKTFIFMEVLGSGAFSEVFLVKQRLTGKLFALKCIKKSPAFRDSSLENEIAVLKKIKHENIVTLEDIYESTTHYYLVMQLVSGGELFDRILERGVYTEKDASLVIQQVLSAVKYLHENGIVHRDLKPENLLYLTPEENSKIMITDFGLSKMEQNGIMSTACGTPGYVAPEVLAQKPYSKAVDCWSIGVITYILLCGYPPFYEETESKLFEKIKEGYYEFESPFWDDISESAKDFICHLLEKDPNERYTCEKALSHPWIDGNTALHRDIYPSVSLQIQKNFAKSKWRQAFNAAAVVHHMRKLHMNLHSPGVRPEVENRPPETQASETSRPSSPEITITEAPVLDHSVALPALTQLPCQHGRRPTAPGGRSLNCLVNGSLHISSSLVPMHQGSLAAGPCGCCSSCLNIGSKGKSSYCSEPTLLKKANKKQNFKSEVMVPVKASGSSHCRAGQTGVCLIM

[14] = molecular target: T13, CAMK2A (Homo sapiens, UniProt Q9UQM7); assay: KINOMEscan; assay type: binding; conditions: read-out: % Ctrl
T13 construct: purchased DiscoveRx KINOMEscan

[15] = molecular target: T14, RIPK1 (Homo sapiens, UniProt Q13546); assay: KINOMEscan; assay type: binding; conditions: read-out: % Ctrl
T14 construct: purchased DiscoveRx KINOMEscan
T14 sequence (Q13546 whole entry): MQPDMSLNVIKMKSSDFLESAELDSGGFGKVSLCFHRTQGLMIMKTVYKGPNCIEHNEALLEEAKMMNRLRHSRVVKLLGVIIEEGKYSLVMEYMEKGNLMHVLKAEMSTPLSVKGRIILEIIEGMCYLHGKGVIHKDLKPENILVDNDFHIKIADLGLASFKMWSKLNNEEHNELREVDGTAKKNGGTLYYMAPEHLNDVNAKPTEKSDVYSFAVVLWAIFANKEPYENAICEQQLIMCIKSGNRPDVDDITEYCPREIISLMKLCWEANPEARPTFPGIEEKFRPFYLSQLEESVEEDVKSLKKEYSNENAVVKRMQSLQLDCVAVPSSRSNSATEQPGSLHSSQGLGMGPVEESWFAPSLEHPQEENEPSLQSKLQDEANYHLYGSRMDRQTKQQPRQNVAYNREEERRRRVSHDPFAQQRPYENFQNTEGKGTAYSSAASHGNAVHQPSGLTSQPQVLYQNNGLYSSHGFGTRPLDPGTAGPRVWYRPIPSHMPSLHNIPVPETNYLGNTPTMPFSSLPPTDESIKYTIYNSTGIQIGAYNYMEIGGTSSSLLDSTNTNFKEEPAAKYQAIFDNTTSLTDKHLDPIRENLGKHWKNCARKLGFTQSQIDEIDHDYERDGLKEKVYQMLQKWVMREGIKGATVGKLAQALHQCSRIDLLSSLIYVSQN

[16] = tested on: PDAC3 xenografts; assay: PDX treatment in nude mice; assay type: in vivo, NU-Foxn1nu nude mice
Method: (§1) Cells were analyzed with a 4-laser Attune NxT Acoustic Cytometer (ThermoFisher Scientific). Cells and digested tumors (as described in [41]) were resuspended in FLOW buffer (1X PBS; 3 mM EDTA (v/v); 3% FBS (v/v)), and the following fluorescently-tagged antibodies were used to label cells for 30 min at 4 °C: Mouse monoclonal anti-human CD133-PE (1:20, Cat no. 130-110-962, Miltenyi, Bergisch Gladbach, Germany), Mouse monoclonal anti-human CD133-APC (1:20, Cat no. 130-111-080, Miltenyi, Bergisch Gladbach, Germany), mouse monoclonal anti-human C-X-C chemokine receptor type 4- Phycoerythrin (CXCR4-PE) (1:20, Cat no. 130-117-354, Miltenyi, Bergisch Gladbach, Germany), or mouse monoclonal anti-human Epithelial cell adhesion molecule-fluorescein isothiocyanate (EpCAM-FITC) (1:20, Cat no. 130-111-115, Miltenyi, Bergisch Gladbach, Germany). Autofluorescent cells were excited with blue laser 488nm and selected as the intersection with the filters 530/40 and 580/30 as previously described. For lysosomes quantification, Acridine Orange (AO) (A1301, Thermo Fisher Scientific, Waltham, MA, USA) or Lysotracker Deep Red (DR) (L12492, Molecular probes, Life Technologies, Waltham, MA, USA) were used. AO fluorescence was assessed with two combinations of excitation and emission spectra: BL1 […] BL3 (Ex488/Em695/40, equal to the far-red channel (>670 nm)) Lysotracker DR fluorescence was assessed with RL1 (Ex638/Em670/14). Bafilomycin A1 (100 nM, Calbiochem, San Diego, CA, USA) was included as a positive control for lysosome disruption. For Annexin V staining, floating and attached cells were pooled and resuspended in 1× AnnexinV staining buffer containing AnnexinV-APC diluted 1:20 (Biotium, Freemont, CA, USA) and incubated for 20 min at room temperature prior to flow cytometric analysis. For all assays, DAPI was used to mark and exclude dead cells, and data were analyzed using the software FlowJo v9.3 (Tree Star Inc., Ashland, OR, USA).
(§2) Female 6- to 8-week-old NU-Foxn1nu nude mice (Envigo, Spain) were subcutaneously injected with control or pre-treated 1 × 10^4 PDAC cells in 50 µL of Matrigel^TM (Corning). Tumor growth was monitored bi-weekly for up to 10 weeks. For Siramesine experiments, mice were subcutaneously implanted with PDAC1 and PDAC3 PDXs. After 4 weeks of tumor growth, mice were randomized into treatment groups (5 mice per group). Mice were treated with Siramesine twice a week (30 mg/kg by oral gavage formulated in 0.5% methylcellulose 15 cP in 0.9% NaCl solution) for ~4 weeks. Gemcitabine (GEMZAR®, Eli Lilly, Indianapolis, IN, USA) was administered twice a week (125 mg/kg i.p.) for ~4 weeks. Tumor volumes (mm^3) were determined twice per week using a digital caliper. Mice were sacrificed at 24 days post treatment initiation and tumors were extracted and analyzed by flow cytometry as described above. For second generation tumor formation, 1000 and 100 cells of indicated treatment groups were resuspended in Matrigel ^TM and injected subcutaneously in recipient NU-Foxn1nu nude mice and tumor formation was monitored for 10 weeks. Mice were housed according to institutional guidelines and all experiments were performed in compliance with the institutional guidelines for the welfare of experimental animals approved by the Universidad Autónoma de Madrid Ethics Committee (CEI 60-1057-A068) or by the Instituto de Salud Carlos III Ethics Committee (CBA12_2014-v3) and La Comunidad de Madrid (PROEX 335/14 or PROEX 53/14) and in accordance with the guidelines for Ethical Conduct in the Care and Use of Animals as stated in The International Guiding Principles for Biomedical Research involving Animals, developed by the Council for International Organizations of Medical Sciences (CIOMS).

[17] = tested on: PDAC1 xenografts; assay: PDX treatment in nude mice; assay type: in vivo, NU-Foxn1nu nude mice; conditions: PDAC1 PDX; GEM 125 mg/kg i.p. biweekly, SIR 30 mg/kg oral gavage; 23 days
Method: as §1, §2

T1 sequence (Q15349 1-388 limits assumed): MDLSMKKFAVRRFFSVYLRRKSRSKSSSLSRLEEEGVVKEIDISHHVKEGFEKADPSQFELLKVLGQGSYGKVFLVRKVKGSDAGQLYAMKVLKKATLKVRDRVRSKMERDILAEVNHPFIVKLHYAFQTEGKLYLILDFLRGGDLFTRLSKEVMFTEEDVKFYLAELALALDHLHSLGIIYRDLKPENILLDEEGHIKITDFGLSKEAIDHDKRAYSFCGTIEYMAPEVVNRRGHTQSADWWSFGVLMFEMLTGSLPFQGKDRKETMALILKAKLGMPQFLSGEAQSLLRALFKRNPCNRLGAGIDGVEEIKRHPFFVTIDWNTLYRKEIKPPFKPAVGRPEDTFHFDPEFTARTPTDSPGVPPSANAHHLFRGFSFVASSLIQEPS

| SMILES | remaining binding at 1 µM [1] | remaining binding at 1 µM [2] | remaining binding at 1 µM [3] | remaining binding at 1 µM [4] | remaining binding at 1 µM [5] | % Ctrl [6] | remaining binding at 1 µM [7] | remaining binding at 1 µM [8] | remaining binding at 1 µM [9] | remaining binding at 1 µM [10] | remaining binding at 1 µM [11] | remaining binding at 1 µM [12] | remaining binding at 1 µM [13] | remaining binding at 1 µM [14] | remaining binding at 1 µM [15] | tumor volume versus control ([16]; PDAC3 PDX, GEM 125 mg/kg i.p. biweekly, SIR 30 mg/kg oral gavage, 23 days) | percentage of CD133+ and CD133+/CXCR4+ in tumors ([16]; PDAC3 tumors, 30 mg/kg) | tumor volume versus control [17] |
| --- | --- | --- | --- | --- | --- | --- | --- | --- | --- | --- | --- | --- | --- | --- | --- | --- | --- | --- |
| CN1CCC(CNc2ccc3ncc(C(=O)Nc4cccc(OC(F)(F)F)c4)n3n2)CC1 [Cpd 2] | 93% | 96% | 94% | 92% | 100% | 100% | 85% | 98% | 89% | 100% | 92% | 61% | 92% | 82% | 100% | – | – | – |
| Fc1ccc(-n2cc(CCCCN3CCC4(CC3)OCc3ccccc34)c3ccccc32)cc1 [siramesine] | – | – | – | – | – | – | – | – | – | – | – | – | – | – | – | no significant differences | reduce | no significant differences |
